Laboratory results: patent US20190315711A1 (eXIthera Pharmaceuticals, Inc., priority 2016, published 2019)
pIC50: −log10 of the molar value.

Columns and labels:
[1] = Plasma protein binding by equilibrium dialysis; assay type: in vitro ADME; conditions: both sexes, pooled plasma, pH 7.4, human plasma protein binding, read-out: PPB
Method: The following procedure was used to determine the plasma protein binding of a test compound in pooled plasma from human (mixed gender) via equilibrium dialysis in a 96-well plate format. The dialysate compartment was loaded with phosphate-buffered saline (pH 7.4) and the sample side was loaded with plasma spiked with the test compound at a concentration of 10 μM. After loading, samples were covered and incubated for 4 hours at 37° C. After incubation, each compartment was sampled, diluted with acetonitrile/buffer and centrifuged. The supernatants were analyzed by HPLC-MS/MS. The analyte peak areas obtained from HPLC-MS/MS analysis of each sample were used to calculate protein binding according to the following equation (Equation 4):
where: AREAp=Peak area of analyte in protein matrix; AREAb=Peak area of analyte in buffer. The amount measured in the plasma compartment included both free and bound drug, while that on the buffer side represented free drug only; the differences were used to calculate the percentage plasma protein bound. Three reference compounds were tested in each assay: acebutolol, quinidine and warfarin.

human Factor XIa = human Factor XIa (Homo sapiens, UniProt P03951); test: Factor XIa enzyme inhibition assay (dose response, fluorogenic AMC substrate); assay type: biochemical; set-up: Enzyme: Factor XIa; conditions: purified enzyme; substrate 50 μM, enzyme 0.25 nM; read-out: hFXIa IC50
human Factor XIa, sequence (P03951 388-625 limits assumed): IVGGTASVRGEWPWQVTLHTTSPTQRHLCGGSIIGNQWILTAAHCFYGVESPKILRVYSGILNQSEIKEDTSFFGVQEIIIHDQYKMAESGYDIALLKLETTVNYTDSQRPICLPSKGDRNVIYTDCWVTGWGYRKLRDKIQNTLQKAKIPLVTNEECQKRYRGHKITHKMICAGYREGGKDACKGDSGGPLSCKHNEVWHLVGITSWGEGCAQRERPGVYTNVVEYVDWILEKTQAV
human Factor XIa, sequence (P03951 19-387 partner limits assumed): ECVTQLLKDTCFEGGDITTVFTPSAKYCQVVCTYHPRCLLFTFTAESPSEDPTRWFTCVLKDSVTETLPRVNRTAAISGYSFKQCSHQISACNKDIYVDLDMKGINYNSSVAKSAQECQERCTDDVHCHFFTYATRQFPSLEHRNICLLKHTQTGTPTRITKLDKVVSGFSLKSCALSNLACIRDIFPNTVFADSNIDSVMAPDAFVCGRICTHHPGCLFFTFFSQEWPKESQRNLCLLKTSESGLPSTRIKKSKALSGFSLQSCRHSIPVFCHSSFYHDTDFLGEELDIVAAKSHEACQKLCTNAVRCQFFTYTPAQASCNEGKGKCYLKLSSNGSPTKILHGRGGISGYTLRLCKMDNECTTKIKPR
Summary of the method: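 Fluorogenic assay in 20 mM Hepes pH 7.4, 150 mM NaCl, 0.02% Tween 20 with 0.25 nM enzyme and 50 μM Glp-Pro-Arg-AMC (final). Fluorescence read every minute for 30 min at 30 °C after serial two-fold compound dilution; IC50 from four-parameter Hill fit of dose-response curves.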

[2] = Metabolic stability in dog hepatocytes; assay type: in vitro ADME; conditions: pooled cryopreserved hepatocytes; beagle dog hepatocytes, 2 μM compound, 500,000 cells/mL, 37° C.; read-out: Dog Hepatocyte Stability (T½: min)
Method: The following procedure was used to determine the stability of test compounds in beagle dog hepatocytes in a 96-well plate format. The test compounds, including the controls, imipramine and 7-ethoxycoumarin, were dissolved at 10 mM in DMSO, followed by further 5-fold dilution with DMSO to 2 mM. Pooled cryopreserved beagle dog hepatocytes were thawed and transferred into complete medium. Cells were gently centrifuged (700 rpm for 5 min) and the pellet rinsed with KHB (Krebs Henseleit buffer). Cells were resuspended, counted using Trypan blue, and adjusted to 1 million cells/mL in KHB buffer. The 2 mM compound stock solutions were diluted 10-fold with acetonitrile, followed by a further 50-fold dilution with KHB buffer. 200 μL of these compound solutions were transferred to 96-well polypropylene assay plates and an equal volume of the hepatocyte solution was added and mixed to initiate the reaction (final assay concentrations were 2 μM compound and 500,000 cells/mL). Assay plates were incubated at 37° C. in 5% CO2 with gentle agitation. 50 μL aliquots were removed at multiple time points out to 180 minutes and quenched with 6 volumes of cold acetonitrile (containing 250 ng/mL of carbutamide and chrysin as internal standards) to terminate the reaction and precipitate protein. Quenched samples were maintained on ice. The quenched samples were centrifuged at 2000×g (3100 rpm) for 10 minutes at 4° C. 50 μL aliquots of the supernatants were removed and diluted with 100 μL Milli-Q water to reduce the % organic content prior to bioanalysis by LC-MS/MS. Peak areas corresponding to the test compound were recorded. The compound remaining was calculated by comparing the peak area at each time point to time zero. Data were analyzed and results were calculated using Microsoft Excel 2010.

Thrombin = target: T1, Thrombin (Homo sapiens, UniProt P00734); test: Dose response assay for protease inhibitors: thrombin; assay type: biochemical; conditions: ratio versus Factor XIa
T1 construct: Thrombin; 0.2 μM in 50% glycerol (7.34 μg/mL)

SMILES | fraction unbound at 4 h, 10 μM [1] | pIC50 (human Factor XIa) | half-life at 2 μM [2] | Ratio: Thrombin/FXIa (Thrombin)
CC[C@@H](NC(=O)N1C(=O)[C@H](Cc2ccnc(N)c2)[C@H]1C(=O)N(C)c1ncccn1)c1cccc(Cl)c1 [Compound 121] | 0.05 to 0.09 | > 8.00 | < 1 h | H (“H” indicates 101-1000)
CC[C@H](NC(=O)N1C(=O)[C@H](Cc2ccnc(N)c2)[C@H]1C(=O)N(C)c1ccncc1)c1ccccc1C [Compound 97] | 0.1 to 0.5 | > 8.00 | 2.02 to 4 h | H (“H” indicates 101-1000)
CN(C(=O)[C@@H]1[C@@H](Cc2ccnc(N)c2)C(=O)N1C(=O)N[C@@H](C1CCCCC1)C(F)(F)F)c1ncccn1 [Compound 21] | < 0.05 | > 8.00 | < 1 h | H (“H” indicates 101-1000)
CC[C@@H](NC(=O)N1C(=O)[C@H](Cc2cc(C)nc(N)c2)[C@H]1C(=O)N(C)c1ccccc1)C1CCCCC1 [Compound 91] | 0.05 to 0.09 | > 8.00 | 1.02 to 2 h | H (“H” indicates 101-1000)
CN(C(=O)[C@@H]1[C@@H](Cc2ccnc(N)c2)C(=O)N1C(=O)N[C@@H](C1CC1)C(F)(F)F)c1ncccn1 [Compound 78] | 0.1 to 0.5 | 7.00 to 8.00 | < 1 h | H (“H” indicates 101-1000)
CN(C(=O)[C@@H]1[C@@H](Cc2ccnc(N)c2)C(=O)N1C(=O)N[C@@H](C1CCCCC1)C1CC1)c1ccccc1 [Compound 36] | < 0.05 | > 8.00 | < 1 h | H (“H” indicates 101-1000)
CCN(C(=O)[C@@H]1[C@@H](Cc2ccnc(N)c2)C(=O)N1C(=O)N[C@@H](C1CCCCC1)C(F)(F)F)c1ccccc1 [Compound 24] | < 0.05 | 7.00 to 8.00 |  | G (“G” indicates 1-100)
CC[C@@H](NC(=O)N1C(=O)[C@H](Cc2ccnc(N)c2)[C@H]1C(=O)N(C)c1ncccn1)c1cccnc1 [Compound 61] | < 0.5 | > 8.00 | 2.02 to 4 h | H (“H” indicates 101-1000)
CC[C@@H](NC(=O)N1C(=O)[C@H](Cc2ccnc(NC)c2)[C@H]1C(=O)N(C)c1ncccn1)C1CCCCC1 [Compound 80] | < 0.05 | > 8.00 | < 1 h | H (“H” indicates 101-1000)
CN(C(=O)[C@@H]1[C@@H](Cc2ccnc(N)c2)C(=O)N1C(=O)N[C@@H](C1CCCCC1)C(F)(F)F)c1cccc(F)c1 [Compound 22] | < 0.05 | > 8.00 |  | G (“G” indicates 1-100)
CC[C@@H](NC(=O)N1C(=O)[C@H](Cc2ccnc(N)c2)[C@H]1C(=O)N(C)c1ccncc1)c1cccc(OC)c1 [Compound 100] | 0.1 to 0.5 | > 8.00 | > 4 h | H (“H” indicates 101-1000)
CC[C@@H](NC(=O)N1C(=O)[C@H](Cc2ccnc(N)c2)[C@H]1C(=O)N(C)c1ccncc1)c1cccc(Cl)c1 [Compound 90] | < 0.05 | > 8.00 | 2.02 to 4 h | H (“H” indicates 101-1000)
CC[C@@H](NC(=O)N1C(=O)[C@H](Cc2cc(C)nc(N)c2)[C@H]1C(=O)N(C)c1ccccc1)c1cccc(Cl)c1 [Compound 120] | < 0.05 | > 8.00 | 2.02 to 4 h | H (“H” indicates 101-1000)
CN(C(=O)[C@@H]1[C@@H](Cc2ccnc(N)c2)C(=O)N1C(=O)N[C@@H](C1CCCCC1)C1CC1)c1ccncc1 [Compound 52] | 0.05 to 0.09 | > 8.00 | < 1 h | H (“H” indicates 101-1000)
CC[C@@H](NC(=O)N1C(=O)[C@H](Cc2ccnc(N)c2)[C@H]1C(=O)N(C)c1ccncc1)c1ccccc1Cl [Compound 95] | 0.05 to 0.09 | > 8.00 | 2.02 to 4 h | H (“H” indicates 101-1000)
CN(C(=O)[C@@H]1[C@@H](Cc2ccnc(N)c2)C(=O)N1C(=O)NC(c1ccccc1)c1ccccc1)c1ccncc1 [Compound 82] | 0.05 to 0.09 | > 8.00 | 2.02 to 4 h | H (“H” indicates 101-1000)
CC[C@@H](NC(=O)N1C(=O)[C@H](Cc2ccnc(N)c2)[C@H]1C(=O)N(C)c1ccccc1)C1CCCCC1 [Compound 27] | 0.05 to 0.09 | > 8.00 | 2.02 to 4 h | H (“H” indicates 101-1000)
CC[C@@H](NC(=O)N1C(=O)[C@H](Cc2ccnc(N)c2)[C@H]1C(=O)N(C)c1ccncc1)c1cccc(C)c1 [Compound 87] | < 0.05 | > 8.00 | 2.02 to 4 h | H (“H” indicates 101-1000)
CCC[C@@H](NC(=O)N1C(=O)[C@H](Cc2ccnc(N)c2)[C@H]1C(=O)N(C)c1ccccc1)C1CCCCC1 [Compound 50] | < 0.05 | > 8.00 | 1.02 to 2 h | G (“G” indicates 1-100)
CCC[C@@H](NC(=O)N1C(=O)[C@H](Cc2ccnc(N)c2)[C@H]1C(=O)N(C)c1ccncc1)c1ccccc1 [Compound 86] | < 0.05 | > 8.00 | > 4 h | I (“I” indicates >500)
CC[C@@H](NC(=O)N1C(=O)[C@H](Cc2ccnc(N)c2)[C@H]1C(=O)N(C)c1ccncc1)c1cccnc1 [Compound 59] | < 0.5 | > 8.00 | > 4 h | H (“H” indicates 101-1000)
CC[C@@H](NC(=O)N1C(=O)[C@H](Cc2ccnc(N)c2)[C@H]1C(=O)N(C)c1ccccc1)C1CC1 [Compound 46] | 0.1 to 0.5 | 7.00 to 8.00 |  | G (“G” indicates 1-100)
CN(C(=O)[C@@H]1[C@@H](Cc2ccnc(N)c2)C(=O)N1C(=O)N[C@@H](C1CCCCC1)C(F)(F)F)c1cccnc1 [Compound 17] | 0.1 to 0.5 | 7.00 to 8.00 |  | G (“G” indicates 1-100)
CN(C(=O)[C@@H]1[C@@H](Cc2ccnc(N)c2)C(=O)N1C(=O)N[C@@H](C1CCCCC1)C(F)(F)F)c1ccncc1 [Compound 18] | 0.1 to 0.5 | > 8.00 |  | H (“H” indicates 101-1000)
CN(C(=O)[C@@H]1[C@@H](Cc2ccnc(N)c2)C(=O)N1C(=O)N[C@@H](C1CCCCC1)C(F)(F)F)c1cncnc1 [Compound 19] | 0.05 to 0.09 | > 8.00 |  | G (“G” indicates 1-100)
Cc1ccccc1N(C)C(=O)[C@@H]1[C@@H](Cc2ccnc(N)c2)C(=O)N1C(=O)N[C@@H](C1CCCCC1)C(F)(F)F [Compound 15] | < 0.05 | 7.00 to 8.00 |  | G (“G” indicates 1-100)
CC[C@@H](NC(=O)N1C(=O)[C@H](Cc2ccnc(N)c2)[C@H]1C(=O)N(CC)c1ncccn1)C1CCCCC1 [Compound 39] |  | > 8.00 | < 1 h | I (“I” indicates >500)
